# Read-outs that look alike come from different tables or passages of the source.
# Tests used:
# [1] = test system: Aureobasidium pullulans (APUL); assay: Minimum inhibitory concentration (MIC), broth two-fold serial dilution test; format: cell-based; settings: Aureobasidium pullulans, IIIB, trypticase soy broth (complex media); Table IIIb; read-out: MIC (F) APUL
# [2] = test system: MIXED COOLING TOWER ALGAE; assay: MIC test against mixed cooling tower algae; format: cell-based, green algae and blue-green bacteria; settings: Table VIII
# Experimental: The algae culture contains green algae and blue-green bacteria, and is obtained from a cooling tower in Spring House, Pennsylvania. The algae culture is grown in Allen's medium on a rotary shaker under flourescent room lighting. This culture is further diluted with Allen's medium and then added to the test vessel.
# ALT = assay: In-vitro plant fungicide test; format: cell-based; settings: Table IVb, read-out: % Control at (ppm) indicated ALT
# Botrytis cinerea (BOC) = assay: In-vitro plant fungicide test; format: cell-based; settings: Botrytis cinerea
# CER = assay: In-vitro plant fungicide test; format: cell-based; settings: Table IVb, read-out: % Control at (ppm) indicated CER
# Fusarium roseum (FUS) = assay: In-vitro plant fungicide test; format: cell-based; settings: Fusarium sambucinum
# PSH = assay: In-vitro plant fungicide test; format: cell-based; settings: Table IVb, read-out: % Control at (ppm) indicated PSH
# Rhizoctonia solani (RHI) = assay: In-vitro plant fungicide test; format: cell-based; settings: Rhizoctonia solani
compound,measurement,setting,value
"CC(=O)NCC(=O)OCC#CI [Compound 28, N-acetylglycine iodopropargyl ester]",MIC,[1],4 µg/mL
same,MIC,[2],6.2 µg/mL
same,inhibition of growth at 1.5 ppm,ALT; 1.5 ppm,0%
same,inhibition of growth at 3 ppm,ALT; 3 ppm,0%
same,inhibition of growth at 6 ppm,ALT; 6 ppm,75%
same,inhibition of growth at 12 ppm,ALT; 12 ppm,100%
same,inhibition of growth at 25 ppm,ALT; 25 ppm,100%
same,inhibition of growth at 0.2 ppm,ALT; .2 ppm,0%
same,inhibition of growth at 0.4 ppm,ALT; .4 ppm,0%
same,inhibition of growth at 0.8 ppm,ALT; .8 ppm,0%
same,inhibition of growth at 1.5 ppm,"Botrytis cinerea (BOC); 1.5 ppm, Table IVb, read-out: % Control at (ppm) indicated BOC",0%
same,inhibition of growth at 6 ppm,"Botrytis cinerea (BOC); 6 ppm, Table IVb, read-out: % Control at (ppm) indicated BOC",0%
same,inhibition of growth at 25 ppm,"Botrytis cinerea (BOC); Table IVa, *=Phytotoxic, read-out: % Control at 25 ppm BOC",100%
same,inhibition of growth at 25 ppm,"Botrytis cinerea (BOC); Table IVb, read-out: % Control at (ppm) indicated BOC",100%
same,inhibition of growth at 0.2 ppm,"Botrytis cinerea (BOC); .2 ppm, Table IVb, read-out: % Control at (ppm) indicated BOC",0%
same,inhibition of growth at 0.4 ppm,"Botrytis cinerea (BOC); .4 ppm, Table IVb, read-out: % Control at (ppm) indicated BOC",0%
same,inhibition of growth at 0.8 ppm,"Botrytis cinerea (BOC); .8 ppm, Table IVb, read-out: % Control at (ppm) indicated BOC",0%
same,inhibition of growth at 1.5 ppm,CER; 1.5 ppm,0%
same,inhibition of growth at 6 ppm,CER; 6 ppm,100%
same,inhibition of growth at 25 ppm,CER; 25 ppm,100%
same,inhibition of growth at 0.2 ppm,CER; .2 ppm,0%
same,inhibition of growth at 0.4 ppm,CER; .4 ppm,0%
same,inhibition of growth at 0.8 ppm,CER; .8 ppm,0%
same,inhibition of growth at 25 ppm,"Fusarium roseum (FUS); read-out: % Control at 25 ppm FUS, 25 ppm, Table IVa, *=Phytotoxic",100%
same,inhibition of growth at 1.5 ppm,"Fusarium roseum (FUS); read-out: % Control at (ppm) indicated FUS, 1.5 ppm, Table IVb",0%
same,inhibition of growth at 3 ppm,"Fusarium roseum (FUS); read-out: % Control at (ppm) indicated FUS, 3 ppm, Table IVb",0%
same,inhibition of growth at 6 ppm,"Fusarium roseum (FUS); read-out: % Control at (ppm) indicated FUS, 6 ppm, Table IVb",0%
same,inhibition of growth at 12 ppm,"Fusarium roseum (FUS); read-out: % Control at (ppm) indicated FUS, 12 ppm, Table IVb",100%
same,inhibition of growth at 25 ppm,"Fusarium roseum (FUS); read-out: % Control at (ppm) indicated FUS, 25 ppm, Table IVb",100%
same,inhibition of growth at 0.2 ppm,"Fusarium roseum (FUS); read-out: % Control at (ppm) indicated FUS, .2 ppm, Table IVb",0%
same,inhibition of growth at 0.4 ppm,"Fusarium roseum (FUS); read-out: % Control at (ppm) indicated FUS, .4 ppm, Table IVb",0%
same,inhibition of growth at 0.8 ppm,"Fusarium roseum (FUS); read-out: % Control at (ppm) indicated FUS, .8 ppm, Table IVb",0%
same,inhibition of growth at 1.5 ppm,PSH; 1.5 ppm,95%
same,inhibition of growth at 6 ppm,PSH; 6 ppm,100%
same,inhibition of growth at 25 ppm,PSH; 25 ppm,100%
same,inhibition of growth at 0.2 ppm,PSH; .2 ppm,0%
same,inhibition of growth at 0.4 ppm,PSH; .4 ppm,0%
same,inhibition of growth at 0.8 ppm,PSH; .8 ppm,0%
same,inhibition of growth at 1.5 ppm,"Rhizoctonia solani (RHI); 1.5 ppm, Table IVb, read-out: % Control at (ppm) indicated RHI",100%
same,inhibition of growth at 6 ppm,"Rhizoctonia solani (RHI); 6 ppm, Table IVb, read-out: % Control at (ppm) indicated RHI",100%
same,inhibition of growth at 25 ppm,"Rhizoctonia solani (RHI); Table IVa, read-out: % Control at 25 ppm RHI",100%
same,inhibition of growth at 25 ppm,"Rhizoctonia solani (RHI); Table IVb, read-out: % Control at (ppm) indicated RHI",100%
same,inhibition of growth at 0.2 ppm,"Rhizoctonia solani (RHI); .2 ppm, Table IVb, read-out: % Control at (ppm) indicated RHI",0%
same,inhibition of growth at 0.4 ppm,"Rhizoctonia solani (RHI); .4 ppm, Table IVb, read-out: % Control at (ppm) indicated RHI",0%
same,inhibition of growth at 0.8 ppm,"Rhizoctonia solani (RHI); .8 ppm, Table IVb, read-out: % Control at (ppm) indicated RHI",0%
